Reference: PubChem BioAssay (NCI)
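Five compound concentrations were applied to cells in 96-well plates for 48 hours; endpoints were derived by simple linear interpolation of the resulting dose-response curve. The concentration for 50% growth inhibition is given as GI50. Definition used: TGI = concentration required for complete inhibition of growth.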

What was measured:
Test in all cases: NCI-60 cell line screen, 48 h
HCC-2998 colon = test system: HCC-2998 colon
NCI-H23 lung = test system: NCI-H23 lung
COLO 205 colon = test system: COLO 205 colon
KM12 colon = test system: KM12 colon
MOLT-4 leukemia = test system: MOLT-4 leukemia
SK-MEL-2 melanoma = test system: SK-MEL-2 melanoma
NCI/ADR-RES ovarian = test system: NCI/ADR-RES ovarian
CCRF-CEM leukemia = test system: CCRF-CEM leukemia
MCF7 breast = test system: MCF7 breast
OVCAR-3 ovarian = test system: OVCAR-3 ovarian
SNB-19 CNS = test system: SNB-19 CNS
K-562 leukemia = test system: K-562 leukemia
OVCAR-5 ovarian = test system: OVCAR-5 ovarian
HT29 colon = test system: HT29 colon
A549 NSCLC = test system: A549 NSCLC
BT-549 breast = test system: BT-549 breast
UACC-257 melanoma = test system: UACC-257 melanoma
HOP-92 NSCLC = test system: HOP-92 NSCLC
RPMI-8226 leukemia = test system: RPMI-8226 leukemia
NCI-H522 lung = test system: NCI-H522 lung
M14 melanoma = test system: M14 melanoma
IGROV1 ovarian = test system: IGROV1 ovarian
TK-10 renal = test system: TK-10 renal
HS 578T breast = test system: HS 578T breast
RXF 393 renal = test system: RXF 393 renal
ACHN renal = test system: ACHN renal
DU-145 prostate = test system: DU-145 prostate
SW-620 colon = test system: SW-620 colon
MDA-MB-231 breast = test system: MDA-MB-231 breast
UO-31 renal = test system: UO-31 renal
MALME-3M melanoma = test system: MALME-3M melanoma
HL-60(TB) leukemia = test system: HL-60(TB) leukemia
SNB-75 CNS = test system: SNB-75 CNS
OVCAR-4 ovarian = test system: OVCAR-4 ovarian
HOP-62 NSCLC = test system: HOP-62 NSCLC
T-47D breast = test system: T-47D breast
SK-MEL-28 melanoma = test system: SK-MEL-28 melanoma
NCI-H226 lung = test system: NCI-H226 lung
786-0 renal = test system: 786-0 renal
SF-295 CNS = test system: SF-295 CNS
SK-OV-3 ovarian = test system: SK-OV-3 ovarian
U251 CNS = test system: U251 CNS
UACC-62 melanoma = test system: UACC-62 melanoma
PC-3 prostate = test system: PC-3 prostate
HCT-116 colon = test system: HCT-116 colon
LOX IMVI melanoma = test system: LOX IMVI melanoma
EKVX NSCLC = test system: EKVX NSCLC
OVCAR-8 ovarian = test system: OVCAR-8 ovarian
SN12C renal = test system: SN12C renal
CAKI-1 renal = test system: CAKI-1 renal
MDA-MB-435 = test system: MDA-MB-435
SF-539 CNS = test system: SF-539 CNS
HCT-15 colon = test system: HCT-15 colon
SK-MEL-5 melanoma = test system: SK-MEL-5 melanoma
NCI-H460 lung = test system: NCI-H460 lung
SR leukemia = test system: SR leukemia
SF-268 CNS = test system: SF-268 CNS
A498 renal = test system: A498 renal
MDA-N = test system: MDA-N

`Cc1ccccc1NC(=S)Nc1ccccn1` showed a GI50 (HCC-2998 colon) of over 100 µM, a TGI (HCC-2998 colon) of over 100 µM and a GI50 (NCI-H23 lung) of 85.3 µM. The TGI (NCI-H23 lung) was over 100 µM, the GI50 (COLO 205 colon) was over 100 µM and the TGI (COLO 205 colon) was over 100 µM. The GI50 (KM12 colon) was over 100 µM, the TGI (KM12 colon) was over 100 µM and the GI50 (MOLT-4 leukemia) was over 100 µM. It also gave a TGI (MOLT-4 leukemia) of over 100 µM, a GI50 (SK-MEL-2 melanoma) of over 100 µM and a TGI (SK-MEL-2 melanoma) of over 100 µM. For the same compound, the GI50 (NCI/ADR-RES ovarian) was over 100 µM, the TGI (NCI/ADR-RES ovarian) was over 100 µM and the GI50 (CCRF-CEM leukemia) was over 100 µM. It also gave a TGI (CCRF-CEM leukemia) of over 100 µM, a GI50 (MCF7 breast) of over 100 µM and a TGI (MCF7 breast) of over 100 µM. The GI50 (OVCAR-3 ovarian) was over 100 µM, the TGI (OVCAR-3 ovarian) was over 100 µM and the GI50 (SNB-19 CNS) was over 100 µM. It also gave a TGI (SNB-19 CNS) of over 100 µM, a GI50 (K-562 leukemia) of over 100 µM and a TGI (K-562 leukemia) of over 100 µM. It also gave a GI50 (OVCAR-5 ovarian) of over 100 µM, a TGI (OVCAR-5 ovarian) of over 100 µM and a GI50 (HT29 colon) of over 100 µM. It also gave a TGI (HT29 colon) of over 100 µM, a GI50 (A549 NSCLC) of over 100 µM and a TGI (A549 NSCLC) of over 100 µM. For the same compound, the GI50 (BT-549 breast) was over 100 µM, the TGI (BT-549 breast) was over 100 µM and the GI50 (UACC-257 melanoma) was over 100 µM. It also gave a TGI (UACC-257 melanoma) of over 100 µM, a GI50 (HOP-92 NSCLC) of 10.6 µM and a TGI (HOP-92 NSCLC) of over 100 µM. For the same compound, the GI50 (RPMI-8226 leukemia) was 62.7 µM, the TGI (RPMI-8226 leukemia) was over 100 µM and the GI50 (NCI-H522 lung) was over 100 µM. For the same compound, the TGI (NCI-H522 lung) was over 100 µM, the GI50 (M14 melanoma) was over 100 µM and the TGI (M14 melanoma) was over 100 µM. It also gave a GI50 (IGROV1 ovarian) of over 100 µM, a TGI (IGROV1 ovarian) of over 100 µM and a GI50 (TK-10 renal) of over 100 µM. The TGI (TK-10 renal) was over 100 µM, the GI50 (HS 578T breast) was over 100 µM and the TGI (HS 578T breast) was over 100 µM. For the same compound, the GI50 (RXF 393 renal) was 13.9 µM, the TGI (RXF 393 renal) was over 100 µM and the GI50 (ACHN renal) was over 100 µM. The TGI (ACHN renal) was over 100 µM, the GI50 (DU-145 prostate) was over 100 µM and the TGI (DU-145 prostate) was over 100 µM. The GI50 (SW-620 colon) was over 100 µM, the TGI (SW-620 colon) was over 100 µM and the GI50 (MDA-MB-231 breast) was 89.7 µM. It also gave a TGI (MDA-MB-231 breast) of over 100 µM, a GI50 (UO-31 renal) of over 100 µM and a TGI (UO-31 renal) of over 100 µM. It also gave a GI50 (MALME-3M melanoma) of over 100 µM, a TGI (MALME-3M melanoma) of over 100 µM and a GI50 (HL-60(TB) leukemia) of over 100 µM. It also gave a TGI (HL-60(TB) leukemia) of over 100 µM, a GI50 (SNB-75 CNS) of over 100 µM and a TGI (SNB-75 CNS) of over 100 µM. The GI50 (OVCAR-4 ovarian) was 72.5 µM, the TGI (OVCAR-4 ovarian) was over 100 µM and the GI50 (HOP-62 NSCLC) was over 100 µM. For the same compound, the TGI (HOP-62 NSCLC) was over 100 µM, the GI50 (T-47D breast) was 55.7 µM and the TGI (T-47D breast) was over 100 µM. It also gave a GI50 (SK-MEL-28 melanoma) of over 100 µM, a TGI (SK-MEL-28 melanoma) of over 100 µM and a GI50 (NCI-H226 lung) of over 100 µM. For the same compound, the TGI (NCI-H226 lung) was over 100 µM, the GI50 (786-0 renal) was over 100 µM and the TGI (786-0 renal) was over 100 µM. For the same compound, the GI50 (SF-295 CNS) was over 100 µM, the TGI (SF-295 CNS) was over 100 µM and the GI50 (SK-OV-3 ovarian) was over 100 µM. The TGI (SK-OV-3 ovarian) was over 100 µM, the GI50 (U251 CNS) was over 100 µM and the TGI (U251 CNS) was over 100 µM. It also gave a GI50 (UACC-62 melanoma) of over 100 µM, a TGI (UACC-62 melanoma) of over 100 µM and a GI50 (PC-3 prostate) of over 100 µM. For the same compound, the TGI (PC-3 prostate) was over 100 µM, the GI50 (HCT-116 colon) was over 100 µM and the TGI (HCT-116 colon) was over 100 µM. The GI50 (LOX IMVI melanoma) was over 100 µM, the TGI (LOX IMVI melanoma) was over 100 µM and the GI50 (EKVX NSCLC) was 49 µM. It also gave a TGI (EKVX NSCLC) of over 100 µM, a GI50 (OVCAR-8 ovarian) of over 100 µM and a TGI (OVCAR-8 ovarian) of over 100 µM. It also gave a GI50 (SN12C renal) of over 100 µM, a TGI (SN12C renal) of over 100 µM and a GI50 (CAKI-1 renal) of over 100 µM. It also gave a TGI (CAKI-1 renal) of over 100 µM, a GI50 (MDA-MB-435) of over 100 µM and a TGI (MDA-MB-435) of over 100 µM. For the same compound, the GI50 (SF-539 CNS) was over 100 µM, the TGI (SF-539 CNS) was over 100 µM and the GI50 (HCT-15 colon) was over 100 µM. For the same compound, the TGI (HCT-15 colon) was over 100 µM, the GI50 (SK-MEL-5 melanoma) was 47.2 µM and the TGI (SK-MEL-5 melanoma) was over 100 µM. It also gave a GI50 (NCI-H460 lung) of over 100 µM, a TGI (NCI-H460 lung) of over 100 µM and a GI50 (SR leukemia) of over 100 µM. For the same compound, the TGI (SR leukemia) was over 100 µM, the GI50 (SF-268 CNS) was over 100 µM and the TGI (SF-268 CNS) was over 100 µM. It also gave a GI50 (A498 renal) of over 100 µM and a TGI (A498 renal) of over 100 µM.
With `COC(=O)N1CC2(CO)C3CC=C(C(=O)Nc4ccccc4Br)C2C1C3Br` (stereo unspecified) the TGI (HCC-2998 colon) was over 50 µM, the TGI (NCI-H23 lung) was over 50 µM and the TGI (COLO 205 colon) was over 50 µM. The TGI (KM12 colon) was over 50 µM, the TGI (MOLT-4 leukemia) was over 50 µM and the TGI (SK-MEL-2 melanoma) was over 50 µM. For the same compound, the TGI (NCI/ADR-RES ovarian) was over 50 µM, the TGI (MDA-N) was over 50 µM and the TGI (CCRF-CEM leukemia) was over 50 µM. The TGI (MCF7 breast) was over 50 µM, the TGI (OVCAR-3 ovarian) was over 50 µM and the TGI (SNB-19 CNS) was over 50 µM. The TGI (K-562 leukemia) was over 50 µM, the TGI (OVCAR-5 ovarian) was over 50 µM and the TGI (HT29 colon) was over 50 µM. The TGI (A549 NSCLC) was over 50 µM, the TGI (UACC-257 melanoma) was over 50 µM and the TGI (HOP-92 NSCLC) was over 50 µM. The TGI (RPMI-8226 leukemia) was over 50 µM, the TGI (M14 melanoma) was over 50 µM and the TGI (IGROV1 ovarian) was over 50 µM. For the same compound, the TGI (TK-10 renal) was over 50 µM, the TGI (HS 578T breast) was over 50 µM and the TGI (RXF 393 renal) was over 50 µM. It also gave a TGI (ACHN renal) of over 50 µM, a TGI (DU-145 prostate) of over 50 µM and a TGI (SW-620 colon) of over 50 µM. For the same compound, the TGI (MDA-MB-231 breast) was over 50 µM, the TGI (UO-31 renal) was over 50 µM and the TGI (MALME-3M melanoma) was over 50 µM. It also gave a TGI (HL-60(TB) leukemia) of over 50 µM, a TGI (SNB-75 CNS) of over 50 µM and a TGI (OVCAR-4 ovarian) of over 50 µM. It also gave a TGI (HOP-62 NSCLC) of over 50 µM, a TGI (T-47D breast) of over 50 µM and a TGI (SK-MEL-28 melanoma) of over 50 µM. The TGI (NCI-H226 lung) was over 50 µM, the TGI (786-0 renal) was over 50 µM and the TGI (SF-295 CNS) was over 50 µM. The TGI (SK-OV-3 ovarian) was over 50 µM, the TGI (U251 CNS) was over 50 µM and the TGI (UACC-62 melanoma) was over 50 µM. For the same compound, the TGI (PC-3 prostate) was over 50 µM, the TGI (LOX IMVI melanoma) was over 50 µM and the TGI (EKVX NSCLC) was over 50 µM. For the same compound, the TGI (OVCAR-8 ovarian) was over 50 µM, the TGI (CAKI-1 renal) was over 50 µM and the TGI (MDA-MB-435) was over 50 µM. The TGI (SF-539 CNS) was over 50 µM, the TGI (HCT-15 colon) was over 50 µM and the TGI (SK-MEL-5 melanoma) was over 50 µM. It also gave a TGI (NCI-H460 lung) of over 50 µM, a TGI (SR leukemia) of over 50 µM and a TGI (SF-268 CNS) of over 50 µM. It also gave a TGI (A498 renal) of over 50 µM.
